These are literature values, as cited in patent publication US20130252843A1, “METHOD OF MAKING AND USING FLUORESCENT-TAGGED NANOPARTICLES AND MICROARRAYS” (THE STATE OF OREGON ACTING BY AND THROUGH THE STATE BOARD …, priority 2010, published 2013).

The target in data set [1] is BS-I, Bandeiraea simplicifolia lectin. Conditions: cited from earlier work.
Another data set addresses T1, PNA, Peanut Agglutinin (Arachis hypogaea, UniProt P02872).
T1 construct: purchased Sigma-Aldrich
Conditions: cited from earlier work.

The target of data set [2] is DBA, Dolichos Biflorus Agglutinin. To be noted: cited from earlier work.
Data set [3] addresses RCA, Ricinus Communis Agglutinin I. To be noted: cited from earlier work.
A further data set addresses Con A, Concanavalin A (Canavalia ensiformis, UniProt P02866). To be noted: reported solution association constants, cited from earlier work.
Data set [4] concerns the target CVN-Q, Cyanovirin-N Q^50C (Q50C) mutant (Nostoc ellipsosporum, UniProt P81180, Q50C). Conditions: cited from earlier work.
The target of data set [5] is CVN (Cyanovirin-N mutants). Conditions: cited from earlier work.
Data set [6] deals with CVN-M, Cyanovirin-N Mut^DB (CV-N^MutDB) mutant (Nostoc ellipsosporum, UniProt P81180). Conditions: reported association constants, cited from earlier work.

Where two headings read alike, the source gives them in different places.

Consider `CC(=O)N[C@H]1C(O)O[C@H](CO)[C@H](O)[C@@H]1O` (stereo partly drawn) [GalNAc, N-acetylgalactosamine], for which the Ka was 187000 M⁻¹ in data set [1]; 2430 M⁻¹ on PNA, Peanut Agglutinin; ~10^3 M^−1 in data set [2]; 48400 M⁻¹ in data set [3].
As to `OC[C@H]1O[C@H](O[C@@H]2[C@@H](O[C@@H]3C(O)O[C@H](CO)[C@@H](O)[C@@H]3O)O[C@H](CO)[C@@H](O)[C@@H]2O)[C@@H](O)[C@@H](O)[C@@H]1O` (stereo partly drawn) [2α,2α-Man3, α-1,2-α-1,2-mannotriose], the Ka at Con A, Concanavalin A was 379000 M⁻¹; on Con A, Concanavalin A (listed as 2α, 2α-Man3) it was 379000 M⁻¹; on Con A, Concanavalin A (listed as Man3), 10^5-10^6 M^−1; in data set [4] (Domain A), 2.94 × 10^5 (Domain A); M^−1; in data set [4] (Domain B) it was 2.33 × 10^4 (Domain B) M^−1; in data set [5], 10^5-10^6 M^−1. Also, the Ka was 294000 M⁻¹ in data set [6] and 294000 M⁻¹ in data set [6] (listed as 2α, 2α-Man3).
